# Results published in US12240812B2, “Compound for inhibiting PGE2/EP4 signaling transduction inhibiting, preparation method therefor, and medical uses thereof” (Keythera (Suzhou) Pharmaceuticals Co. Ltd., priority 2019, dated 2025).
# Test system: PGE2/EP4 signal transduction in MCF7 cells
# Assay: Determination of MCF7 cAMP (PGE2-stimulated, HTRF)
# Assay type: cell-based
# Conditions: Homo sapiens; MCF7 cells, 10 nM PGE2 stimulation, cAMP HTRF; read-out: MCF7 cAMP IC50
# Description: • a) MCF7 cells (ATCC, 6000 cells/well/40 μl) were inoculated into a 384-well cell culture plate containing a medium (DMEM containing 10% FBS and 1×PS), and incubated overnight at 37° C. and 5% CO2. • b) The medium was removed, 40 μl/well of serum-free medium was added, and the cells were incubated at 37° C. and 5% CO2 for 5 hours. • c) The medium was replaced with 18 μL/well of HBSS buffer (Hepes 20 mM, 0.1% BSA, 500 μM IBMX). • d) The compound in DMSO was diluted (1/5 dilution, 9+0 dose). • e) 2 μL of the compound in d) was added to 98 μL of HBSS buffer. • f) 1 μL/well of the diluted compound in e) was added to the cells, with a final starting concentration of 1 μM, and the cells were incubated at 37° C. for 1 hour. • g) The cells were stimulated with 1 μL/well of PGE2 (10 mM DMSO stock solution) (final concentration: 10 nM, and DMSO final concentration: 0.2%), and incubated at 37° C. for 30 minutes. • h) After the incubation, 10 μL/well of cAMP-d2 and 10 μL/well of anti-cAMP were added, RT 1 h. • i) HTRF signals (665 nm/615 nm) were read on Envision. Data Analysis: • High control: 1 μM E7046 • Low control: DMSO • Background: 30 μL/well of lysis buffer+10 μL/well of anti-cAMP • Analytical data: original date—background Inhibition %: 100−100×(high control−analytical data)/(high control−low control)
row,Compound,IC50 [nM]
1,"Cn1cc(-c2ccc(Cn3ccc4cccc(C(=O)NC5(C67CC(C(=O)O)(C6)C7)CC5)c43)nc2)cn1 [Compound 14, 3-(1-(1-((5-(1-Methyl-1H-pyrazol-4-yl)pyridin-2-yl)methyl)-1H-indole-7-carboxamido)cyclopropyl)bicyclo[1.1.1]pentane-1-carboxylic acid]",24.4
2,"C[C@@H](NC(=O)c1cncc2ccn(Cc3cc4ccccc4o3)c12)C12CC(C(=O)O)(C1)C2 [Compound 26-2, (R)-3-(1-(1-(benzofuran-2-ylmethyl)-1H-pyrrolo[3,2-c]pyridine-7-carboxamido)ethyl)bicyclo[1.1.1]pentane-1-carboxylic acid]",> 100
3,"O=C(NC1(C23CC(C(=O)O)(C2)C3)CC1)c1cccc2ccn(Cc3ccc(-c4cccnc4)cn3)c12 [Compound 12, 3-(1-(1-([3,3′-Bipyridin]-6-ylmethyl)-1H-indole-7-carboxamido)cyclopropyl)bicyclo[1.1.1]pentane-1-carboxylic acid]",62.9
4,"O=C(NC1(C23CC(C(=O)O)(C2)C3)CC1)c1cccc2ccn(Cc3ccc(-c4cnn(CCCO)c4)cn3)c12 [Compound 16, 3-(1-(1-((5-(1-(3-Hydroxypropyl)-1H-pyrazol-4-yl)pyridin-2-yl)methyl)-1H-indole-7-carboxamido)cyclopropyl)bicyclo[1.1.1]pentane-1-carboxylic acid]",215
5,"O=C(NC1(C23CC(C(=O)O)(C2)C3)CC1)c1cccc2ccn(Cc3ccc4ccccc4n3)c12 [Compound 3, 3-(1-(1-(Quinolin-2-ylmethyl)-1H-indole-7-carboxamido)cyclopropyl)bicyclo[1.1.1]pentane-1-carboxylic acid]",7.8
6,"CC(NC(=O)c1cncc2ccn(Cc3cc4ccccc4o3)c12)C12CC(C(=O)O)(C1)C2 (racemic) [Compound 26, 3-(1-(1-(Benzofuran-2-ylmethyl)-1H-pyrrolo[3,2-c]pyridine-7-carboxamido)ethyl)bicyclo[1.1.1]pentane-1-carboxylic acid]",60
7,"C[C@@H](NC(=O)c1cccc2ccn(Cc3cc4ccccc4o3)c12)C12CC(C(=O)O)(C1)C2 [Compound 20-6, (R)-3-(1-(1-(benzofuran-2-ylmethyl)-1H-indole-7-carboxamido)ethyl)bicyclo[1.1.1]pentane-1-carboxylic acid]",78
8,"C[C@H](NC(=O)c1cccc2ccn(Cc3cc4ccccc4o3)c12)C12CC(C(=O)O)(C1)C2 [Compound 20-5, (S)-3-(1-(1-(benzofuran-2-ylmethyl)-1H-indole-7-carboxamido)ethyl)bicyclo[1.1.1]pentane-1-carboxylic acid]",14
9,"O=C(NC1(C23CC(C(=O)O)(C2)C3)CC1)c1cccc2ccn(Cc3ccc(-c4cn[nH]c4)cn3)c12 [Compound 15, 3-(1-(1-((5-(1H-Pyrazol-4-yl)pyridin-2-yl)methyl)-1H-indole-7-carboxamido)cyclopropyl) bicyclo[1.1.1]pentane-1-carboxylic acid]",14.5
10,"O=C(NC1(C23CC(C(=O)O)(C2)C3)CC1)c1cccc2ccn(Cc3ccc(N4CCOCC4)cn3)c12 [Compound 10, 3-(1-(1-((5-Morpholinopyridin-2-yl)methyl)-1H-indole-7-carboxamido)cyclopropyl)bicyclo[1.1.1]pentane-1-carboxylic acid]",72
11,"O=C(NC1(C23CC(C(=O)O)(C2)C3)CC1)c1cccc2ccn(Cc3ccc(-c4ccncc4)cn3)c12 [Compound 13, 3-(1-(1-([3,4′-Bipyridin]-6-ylmethyl)-1H-indole-7-carboxamido)cyclopropyl)bicyclo[1.1.1]pentane-1-carboxylic acid]",11.5
12,"O=C(NC1(C23CC(C(=O)O)(C2)C3)CC1)c1cccc2ccn(Cc3ccc(-c4ccccn4)cn3)c12 [Compound 11, 3-(1-(1-([2,3′-Bipyridin]-6′-ylmethyl)-1H-indole-7-carboxamido)cyclopropyl)bicyclo[1.1.1]pentane-1-carboxylic acid]",30
13,"O=C(NC1(C23CC(C(=O)O)(C2)C3)CC1)c1cccc2ccn(Cc3ccc(Cl)cc3)c12 [Compound 4, 3-(1-(1-(4-Chlorobenzyl)-1H-indole-7-carboxamido)cyclopropyl)bicyclo[1.1.1]pentane-1-carboxylic acid]",61
14,"O=C(NC1(C23CC(C(=O)O)(C2)C3)CC1)c1cccc2ccn(Cc3ccc(C4CC4)cn3)c12 [Compound 18, 3-(1-(1-((5-Cyclopropylpyridin-2-yl)methyl)-1H-indole-7-carboxamido)cyclopropyl)bicyclo[1.1.1]pentane-1-carboxylic acid]",62.9
15,"C[C@H](NC(=O)c1cncc2ccn(Cc3cc4ccccc4o3)c12)C12CC(C(=O)O)(C1)C2 [Compound 26-1, (S)-3-(1-(1-(benzofuran-2-ylmethyl)-1H-pyrrolo[3,2-c]pyridine-7-carboxamido)ethyl)bicyclo[1.1.1]pentane-1-carboxylic acid]",30
16,"O=C(NC1(C23CC(C(=O)O)(C2)C3)CC1)c1cccc2ccn(Cc3nc4ccccc4o3)c12 [Compound 23, 3-(1-(1-(Benzo[d]oxazol-2-ylmethyl)-1H-indole-7-carboxamido)cyclopropyl)bicyclo[1.1.1]pentane-1-carboxylic acid]",8
17,"O=C(NC1(C23CC(C(=O)O)(C2)C3)CC1)c1cccc2ccn(Cc3ccc(-c4ccccc4CO)cn3)c12 [Compound 19, 3-(1-(1-((5-(2-(Hydroxymethyl)phenyl)pyridin-2-yl)methyl)-1H-indole-7-carboxamido)cyclopropyl)bicyclo[1.1.1]pentane-1-carboxylic acid]",106
18,"CC(NC(=O)c1cccc2ccn(Cc3cc4ccccc4o3)c12)C12CC(C(=O)O)(C1)C2 (racemic) [Compound 20, 3-(1-(1-(Benzofuran-2-ylmethyl)-1H-indole-7-carboxamido)ethyl)bicyclo[1.1.1]pentane-1-carboxylic acid]",34
19,"O=C(NC1(C23CC(C(=O)O)(C2)C3)CC1)c1cccc2ccn(Cc3ccc(N4CCCC(O)C4)cn3)c12 (centres unmarked) [Compound 17, 3-(1-(1-((5-(3-Hydroxypiperidin-1-yl)pyridin-2-yl)methyl)-1H-indole-7-carboxamido)cyclopropyl)bicyclo[1.1.1]pentane-1-carboxylic acid]",35
20,"O=C(NC1(C23CC(C(=O)O)(C2)C3)CC1)c1cccc2ccn(Cc3nc4ccccc4s3)c12 [Compound 24, 3-(1-(1-(Benzo[d]thiazol-2-ylmethyl)-1H-indole-7-carboxamido)cyclopropyl)bicyclo[1.1.1]pentane-1-carboxylic acid]",12

# Stronger by IC50, values ahead:
row,IC50 [nM],Compound
1,5.5,"O=C(NC1(C23CC(C(=O)O)(C2)C3)CC1)c1cccc2ccn(Cc3ccc(-c4ccccc4)nc3)c12 [Compound 5, 3-(1-(1-((6-Phenylpyridin-3-yl)methyl)-1H-indole-7-carboxamido)cyclopropyl)bicyclo[1.1.1]pentane-1-carboxylic acid]"
2,0.75,O=C(NC1(C23CC(C(=O)O)(C2)C3)CC1)c1cc(F)cc2ccn(Cc3cc4ccccc4o3)c12 [Compound 32]
3,2.9,"O=C(NC1(C23CC(C(=O)O)(C2)C3)CC1)c1cc(Cl)cc2ccn(Cc3ccc(C(F)(F)F)cc3)c12 [Compound 8, 3-(1-(5-Chloro-1-(4-(trifluoromethyl)benzyl)-1H-indole-7-carboxamido)cyclopropyl)bicyclo[1.1.1]pentane-1-carboxylic acid]"
4,1.2,"O=C(NC1(C23CC(C(=O)O)(C2)C3)CC1)c1cncc2ccn(Cc3cc4cc(F)ccc4o3)c12 [Compound 27, 3-(1-(1-((5-Fluorobenzofuran-2-yl)methyl)-1H-pyrrolo[3,2-c]pyridine-7-carboxamido)cyclopropyl)bicyclo[1.1.1]pentane-1-carboxylic acid]"
5,1.5,"O=C(NC1(C23CC(C(=O)O)(C2)C3)CC1)c1cncc2ccn(Cc3cc4cc(C(F)(F)F)ccc4o3)c12 [Compound 28, 3-(1-(1-((5-(Trifluoromethyl)benzofuran-2-yl)methyl)-1H-pyrrolo[3,2-c]pyridine-7-carboxamido)cyclopropyl)bicyclo[1.1.1] pentane-1-carboxylic acid]"
6,1.4,"O=C(NC1(C23CC(C(=O)O)(C2)C3)CC1)c1cccc2ccn(Cc3cc4ccc(F)cc4o3)c12 [Compound 22, 3-(1-(1-((6-Fluorobenzofuran-2-yl)methyl)-1H-indole-7-carboxamido)cyclopropyl)bicyclo[1.1.1]pentane-1-carboxylic acid]"
7,1.5,"[2H]C(c1cc2ccccc2o1)n1ccc2cccc(C(=O)NC3(C45CC(C(=O)O)(C4)C5)CC3)c21 (centres unmarked) [Compound 29, 3-(1-(1-(Benzofuran-2-ylmethyl-d)-1H-indole-7-carboxamido)cyclopropyl)bicyclo[1.1.1]pentane-1-carboxylic acid]"
8,1.1,"[2H]C([2H])(c1cc2ccccc2o1)n1ccc2cccc(C(=O)NC3(C45CC(C(=O)O)(C4)C5)CC3)c21 [Compound 30, 3-(1-(1-(1-Benzofuran-2-ylmethyl-d2)-1H-indole-7-carboxamido)cyclopropyl)bicyclo[1.1.1]pentane-1-carboxylic acid]"
9,1.2,[2H]C1([2H])C([2H])([2H])C1(NC(=O)c1cccc2ccn(Cc3cc4ccccc4o3)c12)C12CC(C(=O)O)(C1)C2 [Compound 31]
